Measurements reported in patent US20080171792A1, “Use of highly concentrated formulations of 4-phenylbutyrate for treatment of certain disorders” (priority 2006, published 2008).

Key:
[1] = system: histone deacetylase (HDAC); conditions: cited from earlier work
[2] = Storage of the concentrated aqueous solution at low temperature (freezing / precipitation); type: physicochemical
Experimental: Therefore, due to likely micelle formation of sodium 4-phenylbutyrate (which we term the self-associated polymeric form), the high concentration of about 500 mg/mL can be achieved in solution. […] This novel invention thus provides a dosage form better able to help the patients presently administered with a high volume dosage of sodium 4-phenylbutyrate. This invention is not intended to be limited by this discussion of micellar phases, or the presence or absence of other high concentration phases (such as sponge or L3, worm-like micelles, sheets and other laminar phases) that may be formed depending on the particular processing conditions and/or materials used. In the follow description the term “solution” is used without regard to whether a micellar phase is present. […] The mixture was cooled to 25° C. and 0.5 g of sodium benzoate was added and mixed well. […] Further cooling of this solution to about −4° C. caused precipitation.

[3] = high dosage of about 20 g a day; cited from earlier work
[4] = Solubility / achievable concentration of sodium 4-phenylbutyrate in water; type: physicochemical; conditions: supersaturated solution in aqueous medium
Experimental: This art-reported solubility is believed to pertain to the maximum solubility of the monomeric form of sodium 4-phenylbutyrate in water. As described in more detail below, a process has been identified of preparing a highly concentrated solution of sodium 4-phenylbutyrate, having a concentration 500 mg/mL in water by dissolving 5 g of sodium 4-phenylbutyrate in about 3.5 mL water to yield a solution volume of about 10 mL. The temperature can be room temperature (25° C.) or an elevated temperature, preferably in the range of up to about 80° C. The solution can be made at a higher temperature and then cooled to room temperature without precipitating resulting.

freezing of the solution ([2]; 600 mg/mL solution at 0° C.): does not freeze
temperature at which precipitation is observed on further cooling ([2]; about 500 mg/mL solution): −40 °C
freezing or precipitation upon storage ([2]; about 500 mg/mL solution, 0° C. for two days): did not freeze or precipitate out
maximum drug concentration achieved in the formulation [4]: about 700 mg/mL
SMILES: O=C([O-])CCCc1ccccc1.[Na+] [sodium 4-phenylbutyrate]
inhibition of histone deacetylase (HDAC) [1]: efficient inhibitor
tolerability [3]: well tolerated
